Assay [1] addresses T1, mutant HIV reverse transcriptase (K103N mutation) (Human immunodeficiency virus type 1 group M subtype B, UniProt P04585, K690N).
T1 construct: mutations that occur in the reverse transcriptase segment of the pol gene; made in house
In words: Analogous RT inhibition assay, K103N mutant. Format: biochemical. As for the experimental part: (§1) 100 μL reaction mixtures were initiated with a combination of primer-template substrate (10 nM final concentration) and dNTPs (0.6 μM dNTPs, 0.75 μM [^3H]-dGTP). The heterodimeric nucleic acid substrate was generated by annealing the DNA primer pD500 (described in Shaw-Reid et al., J. Biol. Chem., 278: 2777-2780; obtained from Integrated DNA Technologies) to t500, a 500 nucleotide RNA template created by in vitro transcription (see Shaw-Reid et al., J. Biol. Chem., 278: 2777-2780). After 1 hour incubation at 37° C., reactions were quenched by 10 μl, streptavidin scintillation proximity assay beads (10 mg/mL, from Amersham Biosciences) in 0.5 M EDTA, pH 8. Microtiter plates were incubated an additional 10 minutes at 37° C. prior to quantification via Topcount (Packard).
(§2) Analogous assays were conducted substituting mutant HIV strains to determine the […] inhibition of compounds of the present invention against mutant HIV reverse transcriptase. In one strain the reverse transcriptase has the Y181C mutation and in the other strain the reverse transcriptase has the K103N mutation. The mutations were generated with the […] site-directed mutagenesis kit (Stratagene). […] The compounds set forth in the other Examples were not tested in the Y181C assay. […] The compounds set forth in the other Examples were not tested in the K103N assay.

Assay [2] deals with acute HIV infection of T-lymphoid cells. In words: Assay for inhibition of HIV replication (spread assay). Format: cell-based. The note with it: read-out: IC95, spread assay. As to the method:
An assay for the inhibition of acute HIV infection of T-lymphoid cells (alternatively referred to herein as the “spread assay”) was conducted in accordance with Vacca, J. P. et al., Proc. Natl. Acad. Sci. USA 1994, 91: 4096. […] The compounds set forth in the other Examples were not tested in the spread assay.

The target in assay [3] is T2, mutant HIV reverse transcriptase (Y181C mutation) (Human immunodeficiency virus type 1 group M subtype B, UniProt P04585, Y768C).
T2 construct: mutations that occur in the reverse transcriptase segment of the pol gene; made in house
In words: Analogous RT inhibition assay, Y181C mutant. Format: biochemical. As for the experimental part:
as §1, §2

The mark [4] stands for this setting: Human immunodeficiency virus 1, inhibition of acute HIV infection of T-lymphoid cells.
The mark [5] stands for this setting: reverse transcriptase with K103N mutation, tested up to 20 micromolar, read-out: IC50, K103N mutant assay.
Where [6] appears, read: reverse transcriptase with Y181C mutation, tested up to 20 micromolar, read-out: IC50, Y181C mutant assay.

Where two headings read alike, the source gives them in different places.

For orientation: IC50 means the concentration at which inhibition is half-maximal. As usually defined, the IC95 is the concentration at which the effect reaches the 95% level.

Turning to `CO[C@@](C(=O)Nc1[nH]c2ccc(Cl)cc2c1S(=O)(=O)c1ccccc1)(c1ccccc1)C(F)(F)F` [Example 39, (2R)-N-[5-chloro-3-(phenylsulfonyl)-1H-indol-2-yl]-3,3,3-trifluoro-2-methoxy-2-phenylpropanamide], the IC50 in assay [1] and in assay [3] was less than 1000 nM in each case. Besides, the IC95 in assay [2] (setting [4]) is less than 1000 nM.

Take `O=C(NCc1cccc(Cl)c1)Nc1[nH]c2ccc(Br)cc2c1S(=O)(=O)N1CCCC1` [Example 71, N-[5-bromo-3-(pyrrolidin-1-ylsulfonyl)-1H-indol-2-yl]-N′-(3-chlorobenzyl)urea]: the IC50 in assay [1] (setting [5]) was less than 1000 nM; in assay [3], 1000 to 20000 nM. For the same compound, the IC95 in assay [2] (setting [4]) was less than 1000 nM.

For the compound `O=C(NCc1ccccc1)Nc1[nH]c2ccc(Br)cc2c1S(=O)(=O)N1CCCC1` [Example 72, N-benzyl-N′-[5-bromo-3-(pyrrolidin-1-ylsulfonyl)-1H-indol-2-yl]urea], the IC50 in assay [1] (setting [5]) and in assay [3] was less than 1000 nM throughout. Also, in assay [2] (setting [4]), the IC95 is less than 1000 nM.

As to `O=C(Nc1ccccn1)Nc1[nH]c2ccc(Br)cc2c1S(=O)(=O)N1CCCC1` [Example 75, N-[5-bromo-3-(pyrrolidin-1-ylsulfonyl)-1H-indol-2-yl]-N′-pyridin-2-ylurea], the IC50 in assay [1] (setting [5]) was less than 1000 nM; in assay [3] (setting [6]) it was 1000 to 20000 nM. In addition, the IC95 in assay [2] (setting [4]) was less than 1000 nM.

Regarding `O=C(Nc1[nH]c2ccc(Br)cc2c1S(=O)(=O)N1CCCC1)Nc1c(F)cccc1F` [Example 77, N-[5-bromo-3-(pyrrolidin-1-ylsulfonyl)-1H-indol-2-yl]-N′-(2,6-difluorophenyl)urea], the values for the IC50 in assay [1] (setting [5]) and in assay [3] (setting [6]) were less than 1000 nM and 1000 to 20000 nM, respectively. Moreover, in assay [2] (setting [4]), the IC95 was less than 1000 nM.

Take `O=C(NCc1ccncc1)Nc1[nH]c2ccc(Br)cc2c1S(=O)(=O)N1CCCC1` [Example 86, N-[5-bromo-3-(pyrrolidin-1-ylsulfonyl)-1H-indol-2-yl]-N′-(pyridin-4-ylmethyl)urea]: the concentration for half-maximal inhibition (IC50) was less than 1000 nM in assay [1] (setting [5]) and greater than 20000 nM in assay [3] (setting [6]). Further, in assay [2] (setting [4]), the IC95 is less than 1000 nM.

Regarding `NC(=O)Nc1[nH]c2ccc(Br)cc2c1S(=O)(=O)N1CCCC1` [Example 89, N-[5-bromo-3-(pyrrolidin-1-ylsulfonyl)-1H-indol-2-yl]urea], the values for the IC50 in assay [1] and in assay [3] (setting [6]) were less than 1000 nM and greater than 20000 nM, respectively. The IC95 in assay [2] (setting [4]) was less than 1000 nM.

On to `O=C(NCCCc1ccccc1)Nc1[nH]c2ccc(Br)cc2c1S(=O)(=O)N1CCCC1` [Example 90, N-[5-bromo-3-(pyrrolidin-1-ylsulfonyl)-1H-indol-2-yl]-N′-(3-phenylpropyl)urea], for which the IC50 in assay [1] was less than 1000 nM; in assay [3] (setting [6]), greater than 20000 nM. In addition, the IC95 in assay [2] (Human immunodeficiency virus 1, T-lymphoid) was 1000 to 10000 nM.

The record behind these values is patent US20100179122A1 (priority 2005, published 2010).
